Patent publication US20130101664A1, “MUC1 LIGAND TRAPS FOR USE IN TREATING CANCERS” (priority 2011, published 2013)

Key:
[1] = test system: ZR-75-1 breast carcinoma cells; test: Cell proliferation by trypan blue exclusion, GO-101 with oxidative stress (H2O2); format: cell-based, human; conditions: 500 nM GO-101 and/or 1 mM H2O2, 3 days, compared to mock conditions
Procedure: FIG. 8. ZR-75-1 human breast carcinoma cells were treated with 500 nM GO-101 and/or 1 mM H2O2 for 3 days and the cell proliferation was measured by trypan blue exclusion method. The percent proliferation is shown to that compared with control.
To assess the effects of GO-101 on sensitivity of human carcinoma cells to oxidative stress, the inventors treated ZR-75-1 breast carcinoma cells with 500 nM GO-101 in the presence and absence of […]. As a control, cells were also separately treated with hFc (data not shown). Following treatment for 3 days, viable cells were then counted using trypan blue exclusion. […] Importantly, the ZR-75-1 cells exposed to 500 nM GO-101, but not hFc, was associated with ˜42% growth inhibition. However, there was a ˜90% growth inhibition when cells were treated with both H2O2 and GO-101 (FIG. 8).

[2] = test system: ZR-75-1 human breast carcinoma xenograft; format: in vivo; conditions: doxorubicin 6 mg/kg i.v. Q4D×3
Procedure: ZR-75-1 human breast carcinoma bearing nu/nu mice were dosed with either doxorubicin alone (squares) or in combination with 1 mg/kg GO-101 i.p daily×21 days (circles). Tumors were measured twice a week.
ZR-75-1 Hormone-dependent Breast Carcinoma Xenograft Model: Preliminary 1st TRAP Study in Combination with Doxorubicin (mean tumor volume+SE). ZR-75-1 human breast carcinoma bearing nu/nu mice were dosed with either doxorubicin 6 mg/kg i.v. Q4D×3 (squares) or 1 mg/kg GO-101 i.p daily×21 days+doxorubicin 6 mg/kg i.v. Q4D×3 (circles). Mice were weighed 2-3 times a week and tumor measurements were also performed 2-3 times a week. Points, mean tumor volumes±SE.
GO-101. To avoid freeze/thaw cycles, GO-101 protein (HG-batch GENU001) was prepared as multiple aliquots of frozen solution in PBS into individual treatment doses. The frozen tubes were stored at −80° C. until initiation of dosing. On each day of treatment, the appropriate tubes were allowed to thaw at room temperature. The resulting solution in each tube was clear and colorless with a pH of ˜6.5.
Upon receipt, the clear, red solution was stored at 4° C. protected from light. Dosing solutions were prepared just prior to each treatment by dilution with saline.
About 9-10 weeks old female mice (on the day of treatment) (CRL: NUFoxn1nu) were obtained from Charles River Labs. The mice were fed irradiated Rodent Diet 5053 and water ad libitum. […]

[3] = severe sepsis; decrease from about 31%; cited from earlier work

In the case of `OO` [H2O2], the “inhibition in cell proliferation / growth inhibition” value [1] is reported as about 66%.
With `COc1cccc2c1C(=O)c1c(O)c3c(c(O)c1C2=O)C[C@@](O)(C(=O)CO)C[C@@H]3O[C@H]1C[C@H](N)[C@H](O)[C@H](C)O1` [doxorubicin] the “tumor regressions / tumor free survivors” value [2] was “neither tumor regressions nor tumor free survivors” and the “anti-tumor activity based upon tumor growth delay” value ([2]; p=0.0356) was “significant”.
In the case of drotrecogin alfa, the mortality [3] is listed as “about 25%”.
